# Laboratory results taken from patent US4897402A, “5-oxa, 5-thia, 5-aza HmG-CoA reductase inhibitors” (Merck & Co., Inc., priority 1988, dated 1990).
# Target: T1, HMG-CoA reductase (Rattus norvegicus, UniProt P51639)
# T1 sequence (P51639 1-887): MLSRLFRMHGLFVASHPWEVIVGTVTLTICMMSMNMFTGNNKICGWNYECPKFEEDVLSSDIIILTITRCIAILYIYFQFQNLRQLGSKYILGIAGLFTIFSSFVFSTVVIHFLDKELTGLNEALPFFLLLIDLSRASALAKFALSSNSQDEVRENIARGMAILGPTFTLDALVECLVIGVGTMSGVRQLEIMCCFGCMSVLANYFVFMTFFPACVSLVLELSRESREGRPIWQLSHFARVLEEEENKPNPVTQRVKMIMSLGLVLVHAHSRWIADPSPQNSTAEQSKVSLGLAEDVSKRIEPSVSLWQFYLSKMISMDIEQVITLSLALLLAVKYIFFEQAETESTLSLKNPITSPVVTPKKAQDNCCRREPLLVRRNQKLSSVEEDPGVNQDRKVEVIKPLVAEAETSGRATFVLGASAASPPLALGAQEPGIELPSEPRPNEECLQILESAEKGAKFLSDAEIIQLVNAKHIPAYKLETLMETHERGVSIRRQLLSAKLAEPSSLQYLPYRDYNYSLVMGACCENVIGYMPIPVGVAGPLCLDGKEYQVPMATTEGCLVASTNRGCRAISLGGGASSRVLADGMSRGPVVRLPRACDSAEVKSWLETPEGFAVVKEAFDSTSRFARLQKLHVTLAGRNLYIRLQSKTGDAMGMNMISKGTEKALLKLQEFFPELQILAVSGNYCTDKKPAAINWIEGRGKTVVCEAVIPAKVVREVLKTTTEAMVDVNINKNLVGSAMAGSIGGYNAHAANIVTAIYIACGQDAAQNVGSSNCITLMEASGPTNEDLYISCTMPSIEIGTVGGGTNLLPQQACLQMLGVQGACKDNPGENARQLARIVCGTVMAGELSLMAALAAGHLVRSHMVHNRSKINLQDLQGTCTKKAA
# Test: intrinsic HMG-CoA reductase inhibition, in vitro protocol of J. Med. Chem., 28, p. 347-358 (1985)
# Type: biochemical
# Conditions: IC50 of test compound compared with that of compactin (mevastatin) determined simultaneously; compactin assigned a value of 100
# Protocol: The intrinsic HMG--CoA reductase inhibition activity of the claimed compounds is measured in the in vitro protocol published in J. Med. Chem., 28, p. 347-358 (1985).
# For estimation of relative inhibitory potencies, compactin (i.e., mevastatin) was assigned a value of 100 and the IC50 value of the test compound was compared with that of compactin determined simultaneously in the published in vitro protocol.
# Representative of the intrinsic HMG-CoA reductase inhibitory activities of the claimed compounds are the following potencies.
row,SMILES,Relative Potency
1,"CCC(C)(C)C(=O)O[C@H]1CC(C)(C)O[C@@H]2CC[C@H](C)[C@H](CC[C@@H]3C[C@@H](O)CC(=O)O3)[C@@H]12 [Compound 9, 6(R) [2-[8(S)-(2,2-dimethylbutyryloxy)-2(S)-methyl-5-oxa-6,6-dimethyl-1,2,3,4,4a(R),7,8,8a(R)-octahydronaphthyl-1(S)]ethyl]-4(R)-hydroxy-3,4,5,6-tetrahydro-2H-pyran-2-one]",96
2,"CCC(C)(C)C(=O)O[C@H]1C[C@@](C)(CSc2ccccc2)O[C@@H]2CC[C@H](C)[C@H](CC[C@@H]3C[C@@H](O)CC(=O)O3)[C@@H]12 [Compound 10, 6(R)-[2-[8(S)-(2,2-dimethylbutyryloxy)-2(S)-methyl-5-oxa-6(S)-(phenylthiomethyl, methyl)-1,2,3,4,4a(R),7,8,8a(R)-octahydronaphthyl-1(S)]ethyl]4(R)-hydroxy 3,4,5,6-tetrahydro-2H-pyran-2-one]",258
3,"CCC(C)(C)C(=O)O[C@H]1C[C@](C)(CSc2ccccc2)O[C@@H]2CC[C@H](C)[C@H](CC[C@@H]3C[C@@H](O)CC(=O)O3)[C@@H]12 [Compound 11, 6(R)-[2-[8(S)-(2,2-dimethylbutyryloxy)-2(S)-methyl-5-oxa-6(R)-(phenylthiomethyl, methyl)-1,2,3,4,4a(R),7,-8,8a(R)-octahydronaphthyl-1(S)]ethyl]-4-(R)-hydroxy 3,4,5,6-tetrahydro-2H-pyran-2-one]",280
